Source: ChEMBL document CHEMBL1151393, “Biologically active pyrrolizidine alkaloids from the true forget-me-not, Myosotis scorpioides” (J Nat Prod, 1982)

Experiments:
Assay type in all cases: organism-based
Settings in all cases: in vivo
Mus musculus [1] = test: Toxicity in BS1 mouse assessed as lethargy at 250 mg/kg, ip; parameters: dose 250 mg/kg, route intraperitoneal
Mus musculus [2] = test: Toxicity in BS1 mouse at 63 mg/kg, ip; parameters: dose 63 mg/kg, route intraperitoneal
Mus musculus [3] = test: Toxicity in BS1 mouse at 125 mg/kg, ip; parameters: dose 125 mg/kg, route intraperitoneal
Mus musculus [4] = test: Toxicity in BS1 mouse assessed as lethargy, ataxia, gasping and clonic convulsion at 500 mg/kg, ip within 4 mins; parameters: dose 500 mg/kg, route intraperitoneal
Mus musculus [5] = test: Toxicity in BS1 mouse assessed as occurrence of liver lesions at 250 mg/kg, ip; parameters: dose 250 mg/kg, route intraperitoneal
Mus musculus [6] = test: Toxicity in BS1 mouse assessed as death at 500 mg/kg, ip within 4 mins; parameters: dose 500 mg/kg, route intraperitoneal
Mus musculus [7] = test: Toxicity in BS1 mouse assessed as ataxia at 250 mg/kg, ip; parameters: dose 250 mg/kg, route intraperitoneal

Row | Compound | Activity (Mus musculus [1]) | Activity (Mus musculus [2]) | Activity (Mus musculus [3]) | Activity (Mus musculus [4]) | Activity (Mus musculus [5]) | Activity (Mus musculus [6]) | Activity (Mus musculus [7])
1 | C/C=C(\C)C(=O)O[C@@H](C)[C@](O)(C(=O)OCC1=CCN2CC[C@@H](OC(C)=O)[C@@H]12)C(C)C | Toxic | Non-toxic | Non-toxic | Toxic | Non-toxic | Toxic | Toxic
2 | C/C=C(\C)C(=O)O[C@@H](C)[C@](O)(C(=O)OCC1=CCN2CC[C@@H](O)[C@@H]12)C(C)C [SCORPIOIDINE] | Toxic | Non-toxic | Non-toxic | Toxic | Non-toxic | Toxic | Toxic
